What was measured:
ob/ob mice = assay: Food intake in ob/ob mice after seven days of treatment; assay type: in vivo; settings: 5 mg/kg/day
[1] = test system: Chrna2 (cholinergic receptor, neuronal nicotinic, alpha polypeptide 2); assay: Chrna2 gene expression in the duodenum of treated ob/ob mice; assay type: in vivo; settings: p<0.01

Cc1oc(-c2ccc(C(F)(F)F)cc2)nc1COc1ccc(S(=O)(=O)N2c3ccccc3C[C@@H]2C(=O)O)cc1 [(R)-1-{4-[5-methyl-2-(4-trifluoromethyl-phenyl)-oxazol-4-ylmethoxy]-benzenesulfonyl}-2,3-dihydro-1H-indole-2-carboxylic acid]
daily food intake down by (ob/ob mice; by day 7, p<0.01): 50%
food intake compared to vehicle (ob/ob mice; starting on day 3): significantly lowered food intake
Chrna2 expression in the duodenum increased by ([1]; after 1 day of treatment): 15 fold
Chrna2 expression in the duodenum increased by ([1]; after 2 days of treatment): 11 fold
Chrna2 expression in the duodenum increased by ([1]; after 7 days of treatment): ~140 fold

Source: patent publication US20070299047A1, “Combination of Organic Compounds” (priority 2004, published 2007)
